Reference: patent US10240154B2, “RNA products and uses thereof” (IFOM Fondazione Istituto FIRC di Oncologia Molecolare, priority 2012, dated 2019)

Columns and labels:
HeLa cells [1] = test: DDR foci formation in the RNase A in vitro cell system with translation inhibitor; format: cell-based, human; details: data not shown
Experimental: (§1) Cells were plated on poly-D-lysinated coverslips and irradiated with 2Gy of IR. 1 h after HeLa cells were permeabilized with 2% Tween 20 in PBS for 10 minutes at RT while I-Sce I-transfected NIH2/4 cells were permeabilized in 0.5% Tween 20 in PBS for 10 minutes at RT. RNase A treatment was carried out in 1 ml of 1 mg/ml Ribonuclease A from bovine pancreas (Sigma-Aldrich cat n: R5503) in PBS for 25 minutes at room temperature. After RNase A digestion, the samples were washed with PBS, treated with 80 units of RNase inhibitor (RNaseOUT Invitrogen 40 units/μl) and 2 μg/ml of α-amanitin (SIGMA) for 15 minutes in a total volume of 70 μl. […] Then, RNase A-treated cells were incubated with total, small or gel extracted RNA, or the same amount of tRNA, for additional 15 minutes at room temperature. […] Cell were then fixed with 4% paraformaldehyde or methanol:acetone 1:1.

Dicer = details: RNA with aptamer-binding site for paromomycin; according to the amount of ligand; cited from earlier work
[2] = system: DDRNAs with telomeric sequence; test: LNA transfection, 53BP1 foci after telomere uncapping in T19 fibrosarcoma cells; format: cell-based, human
Experimental: (§2) (for the experiments in FIGS. 35-36). T19 fibrosarcoma cells (van Steensel, Cell 1998) were grown in DMEM supplemented with 10% fetal bovine serum, 1% glutamine and doxycycline (100 ng/ml). For induction, cells were grown without doxycycline for at least 7-8 days. CRE-ER TRF2^flox/flow MEFs (Lazzerini Denchi and de Lange, Nature 2007) were grown in DMEM supplemented with 10% fetal bovine serum and 1% glutamine. For induction, cells were grown in presence of 4-hydroxytamoxifen (600 nM) for 48 hours. For BrdU incorporation, cells were labeled with 10 μg/ml bromodeoxyuridine (BrdU, Sigma) for 16 hours and incorporation was evaluated by immunofluorescence after DNA denaturation.
(§3) (for the experiments in FIGS. 35-36). Cells were fixed with 1:1 methanol/acetone solution for 2 minutes at room temperature, or 4% paraformaldehyde for 10 minutes at room temperature. After blocking, cells were stained with primary antibodies for 1 h at room temperature, washed and incubated with conjugated secondary antibodies for 40 minutes at RT. Nuclei were stained with DAPI (1 μg/ml).
(§4) (for the experiments in FIG. 36). LNA were first boiled at 90° C. for 5 minutes, chilled at 4° C. for 5 minutes and transfected with Lipofectamine RNAiMAX (Invitrogen) at the final concentration of 200 nM.

[3] = system: DDRNAs with telomeric sequence; test: LNA transfection, BrdU incorporation after telomere uncapping in T19 fibrosarcoma cells; format: cell-based, human; details: LNA 200 nM, 3 days following LNA transfection
Experimental: as §2, §4

NIH2/4 cells [4] = test: Short RNA sequencing of NIH2/4 cells after Dicer or Drosha knockdown by shRNA; format: cell-based, mouse; details: for miRNA expression (spike-normalized reads mapping to miRBase): NIH2/4, cut and uncut, compared to wildtype; for fraction of 22-23 nt vs total short RNAs at the locus: NIH2/4, uncut and cut conditions
Experimental: Nuclei were isolated the day after the adenoviral infection.
Nuclear RNA shorter than 200 nt was purified using mirVana™ microRNA Isolation Kit. RNA quality was checked on a small RNA chip (Agilent) before library preparation (Supplementary FIG. 23a). For Illumina hi Seq Version3 sequencing, spike RNA was added to each RNA sample in the RNA:spike ratio of 10,000:1 before library preparation and libraries for Illumina GA IIX were prepared without spike. An improved short RNA library preparation protocol was used to prepare libraries^68. In brief, adenylated 3′ adapters were ligated to 3′ ends of 3′-OH short RNAs using a truncated RNA ligase enzyme followed by 5′ adapter ligation to 5′-monophosphate ends using RNA ligase enzyme, ensuring specific ligation of undegraded short RNAs. cDNA was prepared using a primer specific to the 3′ adapter in the presence of Dimer eliminator and amplified for 12-15 PCR cycles using a special forward primer targeting the 5′ adapter containing additional sequence for sequencing and a reverse primer targeting the 3′ adapter. The amplified cDNA library was run on a 6% polyacrylamide gel and the 100 bp band containing cDNAs up to 33 nt was extracted using standard extraction protocols. Libraries were sequenced after quality check on a DNA high sensitivity chip (Agilent). Multiplexed barcode sequencing was performed on Illumina GA-IIX (35 bp Single end reads) and Illumina Hi seq version3 (51 bp single end reads). Sequences of all the DDRNAs identified in this study will be available for free downloading by the time of publication at short read archive.
Statistical significance of downregulation of normalized miRNAs in Dicer and Drosha knockdown samples were calculated using the Wilcoxon signed-rank test.
The differences in the fraction of 22-23 nt vs total short RNAs at the locus between the wildtype, Dicer knockdown, and Drosha knockdown before and after cut was calculated by fitting a negative binomial model to the sRNA count data and performing a likelihood ratio test, keeping the fraction of 22-23 nt vs total short RNAs at the locus fixed across conditions under the null hypothesis and allowing it to vary between conditions under the alternative hypothesis.

HEK293 cells = test: G2/M checkpoint assay in HEK293 cells after shRNA knockdown; format: cell-based, human; details: HEK293, 12, 24 and 36 hours post irradiation (5Gy)
Experimental: HEK 293 calcium phosphate transfected cells were irradiated with 5Gy and allowed to respond to IR-induced DNA damage in a cell culture incubator for 12, 24 or 36 hours. Then, at these three time points post irradiation, together with not irradiated cells, 1×10^6 cells were collected for Fluorescence Activated Cell Sorting (FACS) analysis, fixed in 75% ethanol in PBS, 30 minutes on ice. Afterwards, cells were treated 12 hours with 40 μg/ml of RNase A and incubated at least 1 h with propidium iodide (PI). FACS profiles were obtained by the analysis of at least 5×10^5 cells. In the complementation experiments HEK 293 were transfected using Lipofectamine RNAi Max (Invitrogen) and 48 hours later irradiated with 5Gy. Cells were then treated as explained above.

RNA polymerase II [5] = target: T1, RNA polymerase II (Mus musculus, UniProt P08775); test: 53BP1 focus reformation at the I-Sce I-induced DSB in RNase A-treated NIH2/4 cells; format: cell-based; details: data not shown
T1 construct: endogenous in cells; host or cells: NIH2/4 mouse cells
Experimental: as §1

RNA polymerase II [6] = target: T2, RNA polymerase II (Homo sapiens, UniProt P24928); test: Spontaneous 53BP1 foci reformation after RNase A treatment in irradiated HeLa cells; format: cell-based; details: irradiated (2Gy) HeLa, RNase A then RNaseOUT, with α-amanitin for 10 or 45 minutes
T2 construct: endogenous in cells; host or cells: HeLa
Experimental: as §1, with “After RNase A digestion, the samples were washed with PBS, treated with 80 units of RNase inhibitor (RNaseOUT Invitrogen 40 units/μl) and 2 μg/ml of α-amanitin (SIGMA) for 15 minutes in a total volume of 70 μl.” left out

NIH2/4 cells [7] = test: RNase A treatment of I-Sce I cut NIH2/4 cells, foci colocalizing with Cherry-Lac; format: cell-based, mouse
Experimental: as §1

TRF2^flox/flox MEFs = test: RNase A treatment of TRF2 knockout MEFs with uncapped telomeres; format: cell-based, mouse; details: RNase A vs BSA
Experimental: as §2, §3
(for the experiments in FIG. 35). CRE-ER TRF2^flox/flox MEFs (Lazzerini Denchi and de Lange, Nature 2007) were induced to generate TRF2 knockout and telomere uncapping. 48 hours later cells were permeabilized with 0.6% Tween 20 in PBS for 15 min at room temperature.

HeLa cells [8] = test: RNase A treatment of irradiated permeabilized HeLa cells, DDR foci; format: cell-based, human; details: irradiated HeLa cells (2Gy), RNase A 1 mg/ml
Experimental: as §1

[9] = induced (Flag+) T19 cells, LNA 200 nM transfected at day 13 from induction, compared to control LNA
[10] = uninduced (Flag−) T19 cells, LNA 200 nM
[11] = Flag+ T19 cells, BrdU 16 hours, compared to Cntrl LNA

## C[C@@H]1C[C@@H]([C@H](O)CC2CC(=O)NC(=O)C2)C(=O)[C@@H](C)C1 [cyclohexamide]
HeLa cells [1]
  DDR foci formation: no impact on DDR foci formation

## NC[C@@H]1O[C@H](O[C@H]2[C@@H](O)[C@H](O[C@@H]3[C@@H](O)[C@H](N)C[C@H](N)[C@H]3O[C@H]3O[C@H](CO)[C@@H](O)[C@H](O)[C@H]3N)O[C@@H]2CO)[C@H](N)[C@@H](O)[C@@H]1O [paromomycin]
Dicer
  Dicer activity: decrease of Dicer activity

## LNA 3: LNA, SEQ ID NO: 59, ACTGATAGGGAGTGGTAAACT; unrelated control in FIG. 36 (LNA-modified oligonucleotide, LNA positions not given here)
[2]; [9]
  53BP1 foci-positive cells: no effect

## LNA 5: LNA, SEQ ID NO: 61, CCCTAACCCTAACCCTAACCC; antisense telomeric sequence; control in FIG. 34
[2]; [9]
  53BP1 foci-positive cells: decrease in DDR-positive cells
[2]; [10]
  53BP1 foci-positive cells: no difference was observed
[3]; [11]
  percentage of BrdU-positive cells: significant increase
[3]; Flag− T19 cells
  percentage of BrdU-positive cells: no difference is observed

## LNA 6: LNA, SEQ ID NO: 62, GGGTTAGGGTTAGGGTTAGGG; sense telomeric sequence (LNA)
[2]; [9]
  53BP1 foci-positive cells: decrease in DDR-positive cells
[2]; [10]
  53BP1 foci-positive cells: no difference was observed
[3]; [11]
  percentage of BrdU-positive cells: significant increase
[3]; Flag− T19 cells
  percentage of BrdU-positive cells: no difference is observed

## shDicer: shRNA for mouse Dicer, SEQ ID NO:3, lentiviral pLKO.1 (CCGGGCCTCACTTGACCTGAAGTATCTCGAGATACTTCAGGTCAAGTGAGGCTTTTT)
NIH2/4 cells [4]
  miRNA expression (spike-normalized reads mapping to miRBase): significantly lower expressed
  fraction of 22-23 nt vs total short RNAs at the locus: decreases

## shDrosha: shRNA for mouse Drosha, SEQ ID NO:4, lentiviral pLKO.1 (CCGGCCTGGAATATGTCCACACTTTCTCGAGAAAGTGTGGACATATTCCAGGTTTTTG)
NIH2/4 cells [4]
  miRNA expression (spike-normalized reads mapping to miRBase): significantly lower expressed
  fraction of 22-23 nt vs total short RNAs at the locus: decreases

## shRNA against p53: pRETROSUPER shp53, short hairpin SEQ ID NO:2 (guide AGTAGATTACCACTGGAGTCTT)
HEK293 cells
  G2/M checkpoint (FACS cell-cycle profile): did not arrest upon DNA damage

## α-amanitin
RNA polymerase II [5]
  53BP1 focus reformation at the I-Sce I-induced DSB: prevents 53BP1 focus reformation
RNA polymerase II [6]
  53BP1-foci reformation: prevents 53BP1-foci reformation

B1: RNase A: Ribonuclease A from bovine pancreas (Sigma-Aldrich R5503), broad-specificity RNA nuclease (protein, UniProt P61823 27-150, looked up)
Ribonuclease pancreatic: KETAAAKFERQHMDSSTSAASSSNYCNQMMKSRNLTKDRCKPVNTFVHESLADVQAVCSQKNVACKNGQTNCYQSYSTMSITDCRETGSSKYPNCAYKTTQANKHIIVACEGNPYVPVHFDASV
NIH2/4 cells [7]
  53BP1, pATM and MRE11 foci colocalizing with the Cherry-Lac focus: lost
TRF2^flox/flox MEFs
  53BP1 foci: disassemble
  γH2AX foci: stable
HeLa cells [8]
  53BP1, pATM, pS/TQ and MDC1 foci: strongly reduced
  γH2AX accumulation: only slightly affected
